Reference: patent publication US20150023885A1, “Antiperspirant Spray Devices and Compositions” (The Procter & Gamble Company, priority 2013, published 2015)

Source text: (§1) Solubility may be determined by measuring the amount of light transmittance (a light transmittance value) through a simple mixture of the non-volatile silicone fluid and liquid activation enhancer at the same weight/weight concentrations as in a final antiperspirant composition.
as §1, with “Solubility of a liquid activation enhancer in a non-volatile silicone” for “Solubility”, “(light” for “(a light”
The Spectronic Genesys 10 Vis utilizes a tungsten-halogen light source and has a spectral bandwidth of 5 nm, a wavelength range of 325 to 1100 nm, accuracy of ±1 nm and a repeatability of ±0.5 nm. Readouts include absorbance, transmittance and concentration. The spectrophotometer is set to 640 nm wavelength and the percent transmittance mode/readout. Polystyrene spectrometer cuvettes having a 1 cm optical light path and transmittance between ˜340 nm and ˜900 nm are used. One suitable example of a spectrometer cuvette is available from VWR International LLC under Catalog #97000-584 having a 2.5 to 4.5 ml capacity. The spectrophotometer is calibrated according to the manufacturer's instructions using a reference cuvette and composition comprised of just the non-volatile silicone fluid of interest. For example, if the test composition comprises 50 centistoke dimethicone and 15% w/w of isopropyl myristate, then the spectrometer is calibrated using a cuvette containing just 50 centistoke dimethicone. Sample cuvettes are filled sufficiently with a test composition of a non-volatile silicone fluid and liquid activation enhancer so that the light path of the spectrophotometer passes through the test composition in the cuvette. The sample cuvettes are shaken well just prior to taking a light transmittance reading.

Row | light transmittance value | Compound | solubility in 50 centistoke dimethicone
1 | about 100% | CCCCCCCCCCCCCC(C)C [isohexadecane] | soluble in 50 centistoke dimethicone across the 2% to 30% w/w concentration range
2 | about 100% | CCCCCCCCCCCCCCCCCC(=O)OCCCC [butyl stearate] | –
3 | – | PPG-14 butyl ether | insoluble in 50 centistoke dimethicone across the 2% to 30% w/w concentration range
4 | about 100% | mineral oil | –
